GI50 and IC50 data for 23 molecules are collected here from patent US12686673B2 (Blueprint Medicines Corporation, priority 2020, dated 2026).

SMILES strings stand for the structures. pIC50: −log10 of the molar value. Where a name gives a salt, the structure may show the parent alone. Read-outs that look alike come from different tables or passages of the source.

What all share (format): cell-based
Test [1] concerns the target EGFR (A767_dupASV) expressing Ba/F3 stable cell line (Homo sapiens, UniProt P00533, DUP767-769, cells depend on it). Kind of test: Cellular proliferation (Alamar Blue) assay, EGFR A767_dupASV Ba/F3. As to conditions: 72 hr, read-out: A767 IC50. The method, boiled down:
(§1)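 72 hr Ba/F3 viability assay; cells in RPMI/10% FBS, compound dilutions down from 10 μM final, Alamar Blue detection.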
In general terms: Resazurin is reduced to fluorescent resorufin, in cell work by metabolically active cells.

In the next test the test system is A431 cells. The test is described as follows: Cellular proliferation (Alamar Blue) assay, A431.
Test [2] deals with EGFR(D770_N771insSVD) expressing Ba/F3 stable cell line (Homo sapiens, UniProt P00533, DUP768-770, cells depend on it). The test is described as follows: Cellular proliferation (Alamar Blue) assay, EGFR D770_N771insSVD Ba/F3. As to conditions: 72 hr, read-out: D770 IC50. A digest of the protocol:
as §1

For test [3], the target named is HER2 (A775_G776insYVMA) expressing Ba/F3 stable cell line (Homo sapiens, UniProt P04626, DUP772-775, cells depend on it). The test is described as follows: Cellular proliferation (Alamar Blue) assay, HER2 A775_G776insYVMA Ba/F3. As to conditions: 72 hr, read-out: YVMA IC50. On the procedure: • 1. EGFR(D770_N771insSVD) expressing Ba/F3 stable cell line • 2. EGFR (A767_dupASV) expressing Ba/F3 stable cell line • 3. A431 cells • 4. EGFR (H773insNPH) expressing Ba/F3 stable cell line • 5. HER2 (A775_G776insYVMA) expressing Ba/F3 stable cell line Assay Procedure: • 1. Seed cells at 5000 for A431 and 15,000 cells for Ba/F3 in 100 μL/well in complete media (for A431: DMEM with […] and for Ba/F3 cells: RPMI with 10% FBS) in 96-well tissue culture plate. Leave outer wells without cells for background measurements. Incubate at 37 degree Celsius in […] humidified incubator for 16-18 hours. • 2. Add 0.025 ml of 5× concentration compound dilution or DMSO control. Final compound concentration range is 10-0.0005 μM prepared in 3-fold serial dilutions. Incubate for 72 hr at 37 degree Celsius in […] humidified incubator. • 3. Add 0.0125 ml Alamar Blue™ reagent to each well with multi-channel pipette and tap gently on each side of the plate to mix. Incubate for 3 hours at 37 degree Celsius in 5% CO2 humidified incubator. • 4. […] Data analysis was performed using XLfit 5.5.0.5.

The mark [4] stands for this setting: Homo sapiens, A-431; A431 cells, Alamar Blue, 72 hr; read-out: A431 IC50.
[5] abbreviates: Homo sapiens, A-431; A431 cells, 72 hr, Alamar Blue; read-out: A431 IC50.

EGFR (A767_dupASV) expressing Ba/F3 stable cell line, sequence (P00533 with tags, fused parts or gaps DUP767-769): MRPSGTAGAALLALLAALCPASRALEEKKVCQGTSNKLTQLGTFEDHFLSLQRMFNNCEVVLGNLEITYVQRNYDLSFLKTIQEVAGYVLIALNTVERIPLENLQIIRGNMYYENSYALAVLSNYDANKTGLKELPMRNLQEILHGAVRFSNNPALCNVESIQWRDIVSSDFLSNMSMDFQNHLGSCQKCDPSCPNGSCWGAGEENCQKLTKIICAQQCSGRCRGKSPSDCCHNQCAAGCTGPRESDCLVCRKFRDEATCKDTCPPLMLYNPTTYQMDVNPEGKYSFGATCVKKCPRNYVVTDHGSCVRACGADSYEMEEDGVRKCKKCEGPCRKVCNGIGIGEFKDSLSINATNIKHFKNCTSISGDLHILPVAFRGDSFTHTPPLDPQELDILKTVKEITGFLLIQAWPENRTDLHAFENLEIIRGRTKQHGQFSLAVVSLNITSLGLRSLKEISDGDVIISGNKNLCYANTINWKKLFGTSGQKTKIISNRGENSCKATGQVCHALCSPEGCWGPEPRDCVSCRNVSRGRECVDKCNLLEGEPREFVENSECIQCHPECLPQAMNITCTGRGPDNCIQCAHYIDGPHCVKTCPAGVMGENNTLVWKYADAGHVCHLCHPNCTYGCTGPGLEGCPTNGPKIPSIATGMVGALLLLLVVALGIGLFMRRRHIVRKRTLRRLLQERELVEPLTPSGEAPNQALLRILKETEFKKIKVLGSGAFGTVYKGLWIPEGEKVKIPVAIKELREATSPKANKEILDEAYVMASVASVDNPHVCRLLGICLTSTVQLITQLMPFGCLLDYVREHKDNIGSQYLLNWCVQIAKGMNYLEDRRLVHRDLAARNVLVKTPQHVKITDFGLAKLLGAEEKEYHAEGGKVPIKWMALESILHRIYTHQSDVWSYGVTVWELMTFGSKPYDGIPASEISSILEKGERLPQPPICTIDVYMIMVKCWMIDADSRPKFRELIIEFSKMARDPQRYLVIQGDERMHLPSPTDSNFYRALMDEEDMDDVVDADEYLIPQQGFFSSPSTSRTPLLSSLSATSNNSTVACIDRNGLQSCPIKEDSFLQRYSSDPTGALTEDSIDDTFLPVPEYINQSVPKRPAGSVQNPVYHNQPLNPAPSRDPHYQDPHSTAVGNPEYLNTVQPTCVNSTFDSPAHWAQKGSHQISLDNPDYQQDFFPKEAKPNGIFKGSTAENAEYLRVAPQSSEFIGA
HER2 (A775_G776insYVMA) expressing Ba/F3 stable cell line, sequence (P04626 with tags, fused parts or gaps DUP772-775): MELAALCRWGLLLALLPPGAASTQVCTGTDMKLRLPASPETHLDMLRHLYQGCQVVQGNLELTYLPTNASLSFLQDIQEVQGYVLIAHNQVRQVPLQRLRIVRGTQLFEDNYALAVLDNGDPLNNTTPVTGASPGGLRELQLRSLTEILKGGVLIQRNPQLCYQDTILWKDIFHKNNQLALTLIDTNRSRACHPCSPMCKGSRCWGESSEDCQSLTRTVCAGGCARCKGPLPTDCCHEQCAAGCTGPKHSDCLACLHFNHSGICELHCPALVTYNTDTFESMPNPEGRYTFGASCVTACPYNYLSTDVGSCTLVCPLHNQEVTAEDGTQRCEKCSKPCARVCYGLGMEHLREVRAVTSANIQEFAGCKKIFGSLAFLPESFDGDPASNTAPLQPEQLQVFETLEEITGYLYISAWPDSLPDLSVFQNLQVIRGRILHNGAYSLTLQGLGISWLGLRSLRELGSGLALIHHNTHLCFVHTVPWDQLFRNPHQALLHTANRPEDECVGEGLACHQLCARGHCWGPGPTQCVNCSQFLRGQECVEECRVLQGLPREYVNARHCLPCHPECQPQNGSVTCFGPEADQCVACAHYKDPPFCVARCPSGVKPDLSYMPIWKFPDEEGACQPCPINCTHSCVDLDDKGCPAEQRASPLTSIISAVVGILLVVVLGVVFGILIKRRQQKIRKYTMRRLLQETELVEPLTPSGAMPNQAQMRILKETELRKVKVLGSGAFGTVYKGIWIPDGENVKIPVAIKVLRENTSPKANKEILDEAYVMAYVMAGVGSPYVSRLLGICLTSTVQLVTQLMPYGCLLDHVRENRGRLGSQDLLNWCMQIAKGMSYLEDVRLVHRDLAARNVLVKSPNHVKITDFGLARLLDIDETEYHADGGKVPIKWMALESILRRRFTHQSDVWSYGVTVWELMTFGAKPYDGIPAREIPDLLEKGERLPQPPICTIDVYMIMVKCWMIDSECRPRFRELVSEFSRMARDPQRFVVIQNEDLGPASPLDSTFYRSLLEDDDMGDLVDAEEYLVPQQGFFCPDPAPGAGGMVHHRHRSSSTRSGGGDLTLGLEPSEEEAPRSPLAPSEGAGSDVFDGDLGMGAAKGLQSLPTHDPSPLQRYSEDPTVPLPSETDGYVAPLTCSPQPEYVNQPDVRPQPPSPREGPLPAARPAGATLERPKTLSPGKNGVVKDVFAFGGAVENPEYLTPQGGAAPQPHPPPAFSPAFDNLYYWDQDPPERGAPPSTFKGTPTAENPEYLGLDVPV
EGFR(D770_N771insSVD) expressing Ba/F3 stable cell line, sequence (P00533 with tags, fused parts or gaps DUP768-770): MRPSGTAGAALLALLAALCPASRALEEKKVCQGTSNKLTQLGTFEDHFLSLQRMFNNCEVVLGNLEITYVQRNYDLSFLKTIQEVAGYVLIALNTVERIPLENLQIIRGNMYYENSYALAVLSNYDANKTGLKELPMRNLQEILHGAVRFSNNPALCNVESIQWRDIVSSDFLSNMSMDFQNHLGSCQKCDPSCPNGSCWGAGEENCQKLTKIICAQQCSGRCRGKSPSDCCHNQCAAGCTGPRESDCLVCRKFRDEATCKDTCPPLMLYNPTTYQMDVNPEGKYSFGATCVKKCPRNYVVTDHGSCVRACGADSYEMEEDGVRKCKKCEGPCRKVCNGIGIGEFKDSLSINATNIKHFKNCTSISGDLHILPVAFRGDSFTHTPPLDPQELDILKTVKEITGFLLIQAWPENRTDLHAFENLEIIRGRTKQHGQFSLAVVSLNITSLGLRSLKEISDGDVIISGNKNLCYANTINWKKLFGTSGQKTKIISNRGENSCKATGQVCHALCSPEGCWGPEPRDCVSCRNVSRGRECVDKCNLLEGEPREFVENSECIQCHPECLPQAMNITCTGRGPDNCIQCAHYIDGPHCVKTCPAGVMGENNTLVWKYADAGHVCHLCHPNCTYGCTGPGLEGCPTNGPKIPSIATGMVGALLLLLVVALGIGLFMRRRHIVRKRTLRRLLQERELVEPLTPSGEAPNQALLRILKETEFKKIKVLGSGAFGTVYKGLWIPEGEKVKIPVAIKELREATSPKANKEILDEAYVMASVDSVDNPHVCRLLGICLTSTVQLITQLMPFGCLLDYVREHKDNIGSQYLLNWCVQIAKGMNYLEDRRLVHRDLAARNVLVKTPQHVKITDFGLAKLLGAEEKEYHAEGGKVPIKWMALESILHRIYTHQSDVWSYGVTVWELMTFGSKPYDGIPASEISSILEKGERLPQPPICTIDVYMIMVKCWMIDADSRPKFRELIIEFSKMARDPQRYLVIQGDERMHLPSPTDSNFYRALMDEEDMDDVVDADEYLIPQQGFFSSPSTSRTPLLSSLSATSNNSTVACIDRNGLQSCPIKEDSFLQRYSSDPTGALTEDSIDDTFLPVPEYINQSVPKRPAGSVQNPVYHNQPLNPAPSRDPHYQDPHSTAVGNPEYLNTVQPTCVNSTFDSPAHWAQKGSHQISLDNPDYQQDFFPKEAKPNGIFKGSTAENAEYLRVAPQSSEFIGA

For `CN(C)C/C=C/C(=O)Nc1ccc(F)c(Nc2nc(Nc3cnn(C4CCC(O)CC4)c3)ncc2Cl)c1` (stereo not shown) [Compound 5, (E)-N-(3-((5-chloro-2-((1-(4-hydroxycyclohexyl)-1H-pyrazol-4-yl)amino)pyrimidin-4-yl)amino)-4-fluorophenyl)-4-(dimethylamino)but-2-enamide], the GI50 in test [1] is 7.38 µM; in test [2], 5.58 µM; in test [3] it was 4.28 µM. Further, the pIC50 – broadly, the IC50 on a negative log10 scale, so that one unit is a factor of ten – with A431 cells (setting [4]) was less than 5.00.
In the same order, the values of `COC/C=C/C(=O)Nc1ccc(F)c(Nc2nc(Nc3cnn(C)c3)ncc2Cl)c1` [Compound 6, (E)-N-(3-((5-chloro-2-((1-methyl-1H-pyrazol-4-yl)amino)pyrimidin-4-yl)amino)-4-fluorophenyl)-4-methoxybut-2-enamide] are more than 10 µM, more than 10 µM, 9.01 µM and less than 5.00.
In the same order, the values of `Cn1cc(Nc2ncc(Cl)c(Nc3cc(NC(=O)/C=C/CF)ccc3F)n2)cn1` [Compound 7, (E)-N-(3-((5-chloro-2-((1-methyl-1H-pyrazol-4-yl)amino)pyrimidin-4-yl)amino)-4-fluorophenyl)-4-fluorobut-2-enamide] are 0.995 µM, 3.27 µM, 3.22 µM and 5.06.
As to `C=CC(=O)Nc1ccc(Cl)c(Nc2nc(Nc3cnn(C)c3)ncc2Cl)c1` [Compound 8, N-(4-chloro-3-((5-chloro-2-((1-methyl-1H-pyrazol-4-yl)amino)pyrimidin-4-yl)amino)phenyl)acrylamide], the GI50 in test [1] is 7.58 µM; in test [2] it was 7.45 µM; in test [3], 4.99 µM. In addition, the pIC50 with A431 cells (setting [4]) is 5.07.
In the same order, the values of `CN(C)C/C=C/C(=O)Nc1ccc(Cl)c(Nc2nc(Nc3cnn(C)c3)ncc2Cl)c1` [Compound 9, (E)-N-(4-chloro-3-((5-chloro-2-((1-methyl-1H-pyrazol-4-yl)amino)pyrimidin-4-yl)amino)phenyl)-4-(dimethylamino)but-2-enamide] are more than 10 µM, 9.48 µM, 7.49 µM and 5.10.
With `C=CC(=O)Nc1cccc(Nc2nc(Nc3cnn(C)c3)ncc2-c2ccc(C(F)(F)F)cc2)c1F` [Compound 148, N-(2-fluoro-3-((2-((1-methyl-1H-pyrazol-4-yl)amino)-5-(4-(trifluoromethyl)phenyl)pyrimidin-4-yl)amino)phenyl)acrylamide trifluoroacetate], the GI50 stood at 0.056 µM in test [1] and 0.349 µM in test [3]. The pIC50 in the test on A431 cells (setting [4]) is 7.08.
`C=CC(=O)Nc1ccc(F)c(Nc2nc(Nc3cnn(C(C)(C)C#N)c3)ncc2Br)c1` [Compound 271, N-(3-((5-bromo-2-((1-(2-cyanopropan-2-yl)-1H-pyrazol-4-yl)amino)pyrimidin-4-yl)amino)-4-fluorophenyl)acrylamide]: the pIC50 in the test on A431 cells (setting [5]) is 5.53. Moreover, the GI50 in test [3] worked out at 2.16 µM.
The matching figures for `C=CC(=O)Nc1ccc(F)c(Nc2nc(Nc3cnn(C(C)(C)C#N)c3)ncc2C2=CCOC2)c1` [Compound 272, N-(3-((2-((1-(2-cyanopropan-2-yl)-1H-pyrazol-4-yl)amino)-5-(2,5-dihydrofuran-3-yl)pyrimidin-4-yl)amino)-4-fluorophenyl)acrylamide]: 6.00 and 0.602 µM.
Consider `C=CC(=O)Nc1ccc(F)c(Nc2nc(Nc3cnn(CC(C)(C)O)c3)ncc2Br)c1` [Compound 273, N-(3-((5-bromo-2-((1-(2-hydroxy-2-methylpropyl)-1H-pyrazol-4-yl)amino)pyrimidin-4-yl)amino)-4-fluorophenyl)acrylamide], for which, in the test on A431 cells (setting [5]), the pIC50 was 5.41. Further, the GI50 in test [3] came out at 2.63 µM.
As for `C=CC(=O)Nc1cccc(Nc2nc(Nc3cnn(C)c3)ncc2-c2ccc(Br)cc2)c1` [Compound 274, N-(3-((5-(4-bromophenyl)-2-((1-methyl-1H-pyrazol-4-yl)amino)pyrimidin-4-yl)amino)phenyl)acrylamide], the pIC50 in the test on A431 cells (setting [5]) is 7.66. Moreover, the results for the GI50 in test [2] and in test [3] were 0.029 µM and 0.12 µM, respectively.
Regarding `C=CC(=O)Nc1cccc(Nc2ncc(Cl)c(Nc3cnn(C)c3)n2)c1` [Compound 275, N-(3-((5-chloro-4-((1-methyl-1H-pyrazol-4-yl)amino)pyrimidin-2-yl)amino)phenyl)acrylamide], the pIC50 in the test on A431 cells (setting [5]) was 5.84. For the same molecule, the GI50 in test [3] was determined as 3.05 µM.
As for `C=CC(=O)Nc1ccc(F)c(Nc2nc(Nc3cnn(C)c3)ncc2-c2ccc(OCc3cccc(F)c3)cc2)c1` [Compound 276, N-(4-fluoro-3-((5-(4-((3-fluorobenzyl)oxy)phenyl)-2-((1-methyl-1H-pyrazol-4-yl)amino)pyrimidin-4-yl)amino)phenyl)acrylamide], the pIC50 in the test with A431 cells (setting [5]) was 6.56. Besides, the GI50 in test [3] was determined as 0.861 µM.
The matching figures for `C=CC(=O)Nc1ccc(F)c(Nc2nc(Nc3cnn(C)c3)ncc2-c2ccc3[nH]ncc3c2)c1` [Compound 277, N-(3-((5-(1H-indazol-5-yl)-2-((1-methyl-1H-pyrazol-4-yl)amino)pyrimidin-4-yl)amino)-4-fluorophenyl)acrylamide]: 6.53 and 0.645 µM.
In the same order, the values of `C=CC(=O)Nc1ccc(F)c(Nc2nc(Nc3cnn(C)c3)ncc2-c2ccn3ncnc3c2)c1` [Compound 278, N-(3-((5-([1,2,4]triazolo[1,5-a]pyridin-7-yl)-2-((1-methyl-1H-pyrazol-4-yl)amino)pyrimidin-4-yl)amino)-4-fluorophenyl)acrylamide] are 7.14 and 0.444 µM.
For the molecule `C=CC(=O)Nc1cccc(Nc2nc(Nc3cnn(C)c3)ncc2F)c1` [Compound 280, N-[3-({5-fluoro-2-[(1-methyl-1H-pyrazol-4-yl)amino]pyrimidin-4-yl}amino)phenyl]prop-2-enamide], the negative-log IC50 (pIC50) with A431 cells (setting [5]) was 6.28. For the same molecule, the GI50 in test [3] is 5.16 µM.
For `C=CC(=O)Nc1cc(Br)cc(Nc2nc(Nc3cnn(C)c3)ncc2Cl)c1` [Compound 283, N-[3-bromo-5-({5-chloro-2-[(1-methyl-1H-pyrazol-4-yl)amino]pyrimidin-4-yl}amino)phenyl]prop-2-enamide], in the test on A431 cells (setting [5]), the pIC50 was 6.21. For the same molecule, the GI50 in test [3] came to 1.48 µM.
In the same order, the values of `C=CC(=O)Nc1ccc(F)c(Nc2nc(Nc3cnn(CCN(C)C)c3)ncc2Cl)c1` [Compound 284, N-(3-((5-chloro-2-((1-(2-(dimethylamino)ethyl)-1H-pyrazol-4-yl)amino)pyrimidin-4-yl)amino)-4-fluorophenyl)acrylamide] are 6.27 and 0.874 µM.
Regarding `C=CC(=O)Nc1ccc(F)c(Nc2nc(Nc3ccc(CN(C)C)cc3)ncc2Cl)c1` [Compound 287, N-(3-((5-chloro-2-((4-((dimethylamino)methyl)phenyl)amino)pyrimidin-4-yl)amino)-4-fluorophenyl)acrylamide], the pIC50 in the test on A431 cells (setting [5]) is 6.33. Also, in test [3], the GI50 is 0.764 µM.
Take `C=CC(=O)Nc1ccc(F)c(Nc2nc(Nc3ccc(N(C)CCN(C)C)cc3)ncc2Cl)c1` [Compound 288, N-(3-((5-chloro-2-((4-((2-(dimethylamino)ethyl)(methyl)amino)phenyl)amino)pyrimidin-4-yl)amino)-4-fluorophenyl)acrylamide]: the pIC50 in the test with A431 cells (setting [5]) was 5.31. In addition, in test [3], the GI50 was 3.04 µM.
In the same order, the values of `C=CC(=O)Nc1cc(Br)cc(Nc2nc(Nc3cnn(C)c3)ncc2-c2ccc(C(F)(F)F)cc2)c1` [Compound 290, N-[3-bromo-5-({2-[(1-methyl-1H-pyrazol-4-yl)amino]-5-[4-(trifluoromethyl)phenyl]pyrimidin-4-yl}amino)phenyl]prop-2-enamide] are less than 5.01 and 2.92 µM.
Turning to `C=CC(=O)Nc1cc(Nc2nc(Nc3cnn(C)c3)ncc2Cl)cc(C(F)(F)F)c1` [Compound 291, N-(3-((5-chloro-2-((1-methyl-1H-pyrazol-4-yl)amino)pyrimidin-4-yl)amino)-5-(trifluoromethyl)phenyl)acrylamide], the negative logarithm of the IC50 (pIC50) in the test on A431 cells (setting [5]) is less than 5.00. The GI50 in test [3] stood at 1.84 µM.
Consider `C=CC(=O)Nc1ccc(Cl)c(Nc2nc(Nc3cnn(C)c3)ncc2-c2ccc(Br)cc2)c1` [Compound 292, N-(3-((5-(4-bromophenyl)-2-((1-methyl-1H-pyrazol-4-yl)amino)pyrimidin-4-yl)amino)-4-chlorophenyl)acrylamide], for which the pIC50 with A431 cells (setting [5]) was 5.99. For the same molecule, the GI50 in test [3] came out at 8.83 µM.
In the same order, the values of `C=CC(=O)Nc1cc(Nc2nc(Nc3cnn(C)c3)ncc2Cl)cc2ccccc12` [Compound 297, N-(3-((5-chloro-2-((1-methyl-1H-pyrazol-4-yl)amino)pyrimidin-4-yl)amino)naphthalen-1-yl)acrylamide] are 5.11 and more than 10 µM.
